Test results as given in patent US10189810B2, “Pyrazolyl-substituted pyridone compounds as serine protease inhibitors” (VERSEON CORPORATION, priority 2014, dated 2019).

Experiments:
Human thrombin = target: T1, Human thrombin (Homo sapiens, UniProt P00734); assay: thrombin protease inhibition assay (chromogenic substrate S-2238); format: biochemical; conditions: 3 nM thrombin, 125 μM S-2238, 10 min pre-incubation, RT, read at 405 nm
T1 construct: Thrombin (fIIa, the active form of prothrombin) is another serine protease; purchased Haematologic Technologies Inc
Experimental: The thrombin activity reported herein (e.g., Table A) was obtained as follows. […] Thrombin was assayed in buffer containing 0.05 M Tris (pH 7.4), 0.015 M NaCl and 0.01% PEG-8000. The final concentration of enzyme used was 3 nM thrombin. […] All assays were performed in 96-well microtiter plates at room temperature (RT). […] Inhibitor IC50 values were determined by adding test compound as ten point, three-fold serial dilutions in buffer solution, as known in the art. The plate was read at 10 minutes after substrate addition. The IC50 was calculated by plotting the percent (%) inhibition against compound concentration and fitting the data to a constrained four parameter sigmoidal curve, as known in the art.

Human KLKB1 protein = target: T2, Human KLKB1 protein (Homo sapiens, UniProt P03952); assay: KLKB1 kallikrein protease inhibition assay (chromogenic substrate S-2302); format: biochemical; conditions: 3 nM KLKB1, 250 μM S-2302, 10 min pre-incubation, RT, read at 405 nm
T2 construct: purchased Enzyme Research Labs
T2 sequence (P03952 391-638 limits assumed): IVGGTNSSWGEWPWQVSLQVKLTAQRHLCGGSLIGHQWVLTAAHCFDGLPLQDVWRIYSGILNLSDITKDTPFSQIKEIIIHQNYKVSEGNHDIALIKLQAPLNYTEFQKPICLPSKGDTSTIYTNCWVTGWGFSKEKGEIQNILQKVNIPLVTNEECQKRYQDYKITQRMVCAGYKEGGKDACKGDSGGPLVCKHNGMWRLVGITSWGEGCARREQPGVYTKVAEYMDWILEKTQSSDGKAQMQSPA
T2 sequence (P03952 20-390 partner limits assumed): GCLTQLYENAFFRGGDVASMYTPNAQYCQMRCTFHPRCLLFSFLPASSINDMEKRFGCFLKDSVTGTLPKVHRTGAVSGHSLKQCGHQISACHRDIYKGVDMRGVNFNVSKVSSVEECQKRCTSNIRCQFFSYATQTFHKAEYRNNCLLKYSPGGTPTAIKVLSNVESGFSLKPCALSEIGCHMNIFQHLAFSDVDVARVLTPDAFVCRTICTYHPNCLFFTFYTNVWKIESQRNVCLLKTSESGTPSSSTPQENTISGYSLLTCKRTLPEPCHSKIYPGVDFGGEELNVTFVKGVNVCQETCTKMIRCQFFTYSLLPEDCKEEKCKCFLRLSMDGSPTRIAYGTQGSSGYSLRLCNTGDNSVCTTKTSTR
Experimental: The KLKB1 kallikrein activity reported herein (e.g., Table A) was obtained as follows. Human KLKB1 protein was obtained from Enzyme Research Labs. The chromogenic substrate S-2302 was obtained from DiaPharma. KLKB1 was assayed in buffer containing 0.05 M Tris (pH 7.4), 0.01 M NaCl and 0.2% w/v PEG-8000. The final concentration of enzyme used was 3 nM KLKB1. The final concentration of substrate used was 250 μM S-2302 for KLKB1. All assays were performed in 96-well microtiter plates at room temperature (RT). […] The plate was read at 10 minutes after substrate addition. The IC50 was calculated by plotting the percent (%) inhibition against compound concentration and fitting the data to a constrained four parameter sigmoidal curve, as known in the art.

malignant breast tumors = conditions: treated mice, cited from earlier work

Row | SMILES | IC50 (Human thrombin) | IC50 (Human KLKB1 protein) | reduction in tumor volume (malignant breast tumors; at 4 weeks) | reduced tumor cells in the blood and liver micrometastases (malignant breast tumors)
1 | CC(C)(C)C(=O)n1nc(-c2cc(Br)cn(CC(=O)N3CCOCC3)c2=O)cc1NCc1ccc(Cl)s1 [Entry 40, 5-bromo-3-(5-[(5-chlorothiophen-2-yl)methyl]amino-1-(2,2-dimethylpropanoyl)-1H-pyrazol-3-yl)-1-[2-(morpholin-4-yl)-2-oxoethyl]-1,2-dihydropyridin-2-one] | < 100 nM | 1 to 10 µM |  | 
2 | O=C(c1ccsc1)n1nc(-c2cc(Br)c[nH]c2=O)cc1NCc1ccc(Cl)s1 [Entry 41, 5-bromo-3-(5-[(5-chlorothiophen-2-yl)methyl]amino-1-(thiophene-3-carbonyl)-1H-pyrazol-3-yl)-1,2-dihydropyridin-2-one] | < 100 nM | 0.1 to 1 µM |  | 
3 | O=c1[nH]cc(Br)cc1-c1cc(NCc2ccc(Cl)s2)[nH]n1 [Entry 42, 5-bromo-3-(5-[(5-chlorothiophen-2-yl)methyl]amino-1H-pyrazol-3-yl)-1,2-dihydropyridin-2-one] | > 100000 nM | 10 to 100 µM |  | 
4 | C=Cc1ccc(-c2cc(NCc3ccc(Cl)s3)n(C(=O)C(C)(C)C)n2)[nH]c1=O [Entry 46, 6-(5-[(5-chlorothiophen-2-yl)methyl]amino-1-(2,2-dimethylpropanoyl)-1H-pyrazol-3-yl)-3-ethenyl-1,2-dihydropyridin-2-one] | < 100 nM | 10 to 100 µM |  | 
5 | O=c1cccc(-c2cc(NCc3ccc(Cl)s3)[nH]n2)[nH]1 [Entry 47, 6-(5-[(5-chlorothiophen-2-yl)methyl]amino-1H-pyrazol-3-yl)-1,2-dihydropyridin-2-one] | > 100000 nM | > 100 µM |  | 
6 | CC(C)(C)C(=O)n1nc(-c2cc(Br)[nH]c(=O)c2)cc1NCc1ccc(Cl)s1 [Entry 48, 6-bromo-4-(5-[(5-chlorothiophen-2-yl)methyl]amino-1-(2,2-dimethylpropanoyl)-1H-pyrazol-3-yl)-1,2-dihydropyridin-2-one] | < 100 nM | 10 to 100 µM |  | 
7 | CCCCCCOC(=O)N=C(N)c1ccc(NCc2nc3cc(C(=O)N(CCC(=O)OCC)c4ccccn4)ccc3n2C)cc1 [dabigatran etexilate] |  |  | 50% | 50-60%
